Where a name gives a salt, the structure may show the parent alone. Active and inactive are the calls of the source. The rule behind the calls is not given here.
Columns and labels:
[1] = system: A549; assay: Antiproliferative activity against human A549 cells assessed as cell viability incubated for 48 hrs by MTT assay; format: functional, cell-based; conditions: A549, 48 h
[2] = system: HeLa; assay: Antiproliferative activity against human HeLa cells assessed as cell viability incubated for 48 hrs by MTT assay; format: functional, cell-based
[3] = system: A2780; assay: Antiproliferative activity against human A2780 cells assessed as cell viability incubated for 48 hrs by MTT assay; format: functional, cell-based; conditions: A2780, 48 h
[4] = system: HCT-8; assay: Antiproliferative activity against human HCT-8 cells assessed as cell viability incubated for 48 hrs by MTT assay; format: functional, cell-based; conditions: HCT-8, 48 h
[5] = system: MCF7; assay: Antiproliferative activity against human MCF7 cells assessed as cell viability incubated for 48 hrs by MTT assay; format: functional, cell-based; conditions: MCF7, 48 h
[6] = system: A549; assay: Induction of apoptosis in human A549 cells assessed as cell viability pretreated with caspase inhibitor Z-VAD-FMK for 24 hrs followed by incubation with compound at 100 nM and measured after 48 hrs by CCK-8 assay; format: functional, cell-based
[7] = system: A549; assay: Induction of apoptosis in human A549 cells assessed as cell viability pretreated with necroptosis inhibitor necrostatin-I for 24 hrs followed by incubation with compound at 100 nM and measured after 48 hrs by CCK-8 assay; format: functional, cell-based
[8] = system: A549; assay: Induction of apoptosis in human A549 cells assessed as cell viability pretreated with autophagy inhibitor 3-methyladenine for 24 hrs followed by incubation with compound at 100 nM and measured after 48 hrs by CCK-8 assay; format: functional, cell-based
[9] = system: A549; assay: Induction of apoptosis in human A549 cells assessed as cell viability pretreated with ferroptosis inhibitor desferoxamine for 24 hrs followed by incubation with compound at 100 nM and measured after 48 hrs by CCK-8 assay; format: functional, cell-based
[10] = system: A549; assay: Induction of apoptosis in human A549 cells assessed as cell viability pretreated with ferroptosis inhibitor ferrostatin-1 for 24 hrs followed by incubation with compound at 100 nM and measured after 48 hrs by CCK-8 assay; format: functional, cell-based
[11] = system: A549; assay: Induction of lipid […] accumulation in human A549 cells at 100 nM incubated for 24 hrs by C11-BODIPY-581/591 staining based flow cytometry analysis; format: functional, cell-based
[12] = system: A549; assay: Antiproliferative activity against human adriamycin-resistant A549/ADR cells assessed as cell viability incubated for 48 hrs by MTT assay; format: functional, cell-based; conditions: A549, 48 h
[13] = system: HCT-8; assay: Antiproliferative activity against human vincristine-resistant HCT-8/VCR cells assessed as cell viability incubated for 48 hrs by MTT assay; format: functional, cell-based; conditions: HCT-8, 48 h
[14] = system: A549; assay: Induction of apoptosis in human A549 cells assessed as early apoptotic cells at 50 nM incubated for 24 hrs by annexin V-FITC/PI staining based flow cytometry analysis; format: functional, cell-based
[15] = system: A549; assay: Induction of apoptosis in human A549 cells assessed as cell viability pretreated with caspase inhibitor Z-VAD-FMK for 24 hrs followed by incubation with compound at 200 nM and measured after 48 hrs by CCK-8 assay; format: functional, cell-based
[16] = system: A549; assay: Induction of apoptosis in human A549 cells assessed as cell viability pretreated with necroptosis inhibitor necrostatin-I for 24 hrs followed by incubation with compound at 200 nM and measured after 48 hrs by CCK-8 assay; format: functional, cell-based
[17] = system: A549; assay: Induction of apoptosis in human A549 cells assessed as cell viability pretreated with autophagy inhibitor 3-methyladenine for 24 hrs followed by incubation with compound at 200 nM and measured after 48 hrs by CCK-8 assay; format: functional, cell-based
[18] = system: A549; assay: Induction of apoptosis in human A549 cells assessed as cell viability pretreated with ferroptosis inhibitor desferoxamine for 24 hrs followed by incubation with compound at 200 nM and measured after 48 hrs by CCK-8 assay; format: functional, cell-based
[19] = system: A549; assay: Induction of apoptosis in human A549 cells assessed as cell viability pretreated with ferroptosis inhibitor ferrostatin-1 for 24 hrs followed by incubation with compound at 200 nM and measured after 48 hrs by CCK-8 assay; format: functional, cell-based
[20] = system: A549; assay: Induction of apoptosis in human A549 cells assessed as cell rounding incubated for 24 hrs […]; format: functional, cell-based
[21] = system: A549; assay: Induction of cell death in human A549 cells assessed as increased mitochondrial membrane density at 200 nM for 12 hrs by TEM analysis; format: functional, cell-based
[22] = biological target: Tubulin; assay: Inhibition of tubulin polymerization (unknown origin) assessed as fluorescence intensity emission at 410 nm for 60 mins; format: protein-complex assay, Homo sapiens
[23] = biological target: Tubulin; assay: Inhibition of [3H]colchicine binding to tubulin (unknown origin) by competitive binding assay; format: protein-complex assay, Homo sapiens
[24] = system: A549; assay: Induction of apoptosis in human A549 cells assessed as chromatin condensation incubated for 24 hrs by CCK-8 assay; format: functional, cell-based
[25] = system: A549; assay: Induction of apoptosis in human A549 cells assessed as nucleic fragmentation incubated for 24 hrs by CCK-8 assay; format: functional, cell-based
[26] = system: A549; assay: Induction of apoptosis in human A549 cells assessed as apoptotic body formation incubated for 24 hrs […]; format: functional, cell-based
[27] = system: A549; assay: Induction of cell death in human A549 cells assessed as vanished mitochondrial cristae at 200 nM for 12 hrs by TEM analysis; format: functional, cell-based
[28] = Resistance index, ratio of IC50 for antiproliferative activity against human vincristine-resistant HCT-8/VCR cells to IC50 for antiproliferative activity against HCT-8 cells; format: functional
[29] = system: A549; assay: Resistance index, ratio of IC50 for antiproliferative activity against human adriamycin-resistant A549/ADR cells to IC50 for antiproliferative activity against human A549 cells; format: functional
[30] = system: A2780; assay: Antiproliferative activity against human paclitaxel-resistant A2780/TAX cells assessed as cell viability incubated for 48 hrs by MTT assay; format: functional, cell-based; conditions: A2780, 48 h
[31] = Resistance index, ratio of IC50 for antiproliferative activity against human paclitaxel-resistant A2780/TAX cells to IC50 for antiproliferative activity against human A2780 cells; format: functional
[32] = system: A549; assay: Induction of cell death in human A549 cells assessed as increased mitochondrial membrane density at 10 uM for 12 hrs by TEM analysis; format: functional, cell-based
[33] = system: A549; assay: Induction of cell death in human A549 cells assessed as vanished mitochondrial cristae at 10 uM for 12 hrs by TEM analysis; format: functional, cell-based
[34] = system: A549; assay: Induction of ferroptosis in human A549 cells assessed as depletion of GSH levels at 10 uM upto 12 hrs; format: functional, cell-based
[35] = system: A549; assay: In vivo antitumor activity against human A549 cells xenografted in athymic nude BALB/c mouse assessed as tumor weight at 10 mg/kg measured after 30 days (reference value: 1 gram); format: functional; conditions: time 30 day
[36] = system: A549; assay: In vivo antitumor activity against human A549 cells xenografted in athymic nude BALB/c mouse assessed as tumor volume at 10 mg/kg measured after 30 days (reference value: 1503.3 mm^3); format: functional; conditions: time 30 day
[37] = system: A549; assay: In vivo antitumor activity against human A549 cells xenografted in athymic nude BALB/c mouse assessed as tumor growth inhibition at 10 mg/kg measured after 30 days relative to control; format: functional; conditions: A549, 720 h, time 30 day, read-out: TGI

SMILES	IC50 [1]	IC50 [2]	IC50 [3]	IC50 [4]	IC50 [5]	Activity [6]	Activity [7]	Activity [8]	Activity [9]	Activity [10]	IC50 [12]	IC50 [13]	also measured
C=C(c1ccc(OC)cc1NC(=O)CO)c1ccc(OC)c2c1OC(C)(C)C=C2	0.04 µM	0.04 µM	0.04 µM	0.13 µM	0.1 µM	Active	Active	Active	Active	Active	–	–	Activity [11]: Active
CC(=O)O[C@H]1C(=O)[C@@]2(C)[C@H]([C@H](OC(=O)c3ccccc3)[C@]3(O)C[C@H](OC(=O)[C@H](O)[C@@H](NC(=O)c4ccccc4)c4ccccc4)C(C)=C1C3(C)C)[C@]1(OC(C)=O)CO[C@@H]1C[C@@H]2O [PACLITAXEL]	0.03 µM	–	–	0.02 µM	–	–	–	–	–	–	0.07 µM	0.13 µM	–
COc1ccc(C(=O)c2ccc(OC)c3c2OC(C)(C)C=C3)c(NC(=O)CO)c1	0.08 µM	0.1 µM	0.1 µM	0.23 µM	0.32 µM	Active	Active	Active	Active	Active	–	–	Activity [14]: Active
C=C(c1cc(OC)c(OC)c(OC)c1)c1ccc(OC)c(O)c1NC(=O)COC	0.19 µM	0.33 µM	0.45 µM	0.28 µM	0.56 µM	–	–	–	–	–	–	–	Activity [15]: Active; Activity [16]: Active; Activity [17]: Active; Activity [18]: Active; Activity [19]: Active
COc1ccc(C(=O)c2cc(OC)c(OC)c(OC)c2)cc1O [PHENSTATIN]	–	0.22 µM	0.11 µM	0.36 µM	0.96 µM	–	–	–	–	–	–	–	Activity [20]: Active; Activity [21]: Active; IC50 [22]: 2.94 µM; IC50 [23]: 3.03 µM; Activity [24]: Active; Activity [25]: Active; Activity [26]: Active; Activity [27]: Active
CC[C@]1(O)C[C@H]2CN(CCc3c([nH]c4ccccc34)[C@@](C(=O)OC)(c3cc4c(cc3OC)N(C=O)[C@H]3[C@@](O)(C(=O)OC)[C@H](OC(C)=O)[C@]5(CC)C=CCN6CC[C@]43[C@@H]65)C2)C1 [VINCRISTINE]	0.06 µM	–	0.03 µM	0.35 µM	–	–	–	–	–	–	0.56 µM	7.86 µM	Ratio IC50 [28]: 22.46; Ratio IC50 [29]: 9.33; IC50 [30]: 0.17 µM; Ratio IC50 [31]: 5.67
CCOc1ccccc1-n1c(C(C)N2CCN(C(=O)COc3ccc(Cl)cc3)CC2)nc2ccccc2c1=O (centres undefined) [ERASTIN]	–	–	–	–	–	–	–	–	–	–	–	–	Activity [32]: Active; Activity [33]: Active; Activity [34]: Active; Activity [35]: 0.89 g; Activity [36]: 1339.4 mm3; inhibition in vivo at 10 mg/kg [37]: 10.9%
COc1cccc2c1C(=O)c1c(O)c3c(c(O)c1C2=O)C[C@@](O)(C(=O)CO)C[C@@H]3O[C@H]1C[C@H](N)[C@H](O)[C@H](C)O1 [DOXORUBICIN HYDROCHLORIDE]	–	–	2.03 µM	3.98 µM	–	–	–	–	–	–	12.5 µM	21.6 µM	IC50 [30]: 2.69 µM
COc1ccc(C(=O)c2cc(OC)c(OC)c(OC)c2)c(NC(=O)CO)c1	0.07 µM	0.07 µM	0.1 µM	0.12 µM	0.23 µM	Active	Active	Active	Active	Active	–	–	Activity [14]: Active
